Like-named read-outs stand apart in the source and are kept apart here.
Key:
[1] = system: loperamide-induced retching; test: Antiemetic effects: loperamide-induced retching in ferrets; format: in vivo; conditions: for Ratio p.o./s.c. of ED50 for blockade of retching: p.o. (−2 h) over s.c. (−1 h)
Method: The antiemetic effects have been determined using the loperamide-induced retching model (i.e. retching induced by an opioid) in ferrets. To exclude species differences in antiemetic activiey, both compounds have also been tested for antiemetic activity against apomorphine in dogs.
Antagonism of emesis induced by the peripherally selective opioid loperamide (0.31 mg/kg, s.c.) was studied over a 1 h-period starting immediately after the emetic challenge in ferrets pretreated with test compound or solvent. In control animals pre-treated with solvent, loperamide induced pronounced retching (mean±SD: 95±39 counts; n=[…]) and, to a lesser extent, vomiting (5±4).

[2] = target: T1, cloned human h-NK1 receptors expressed in CHO cells (Homo sapiens, UniProt P25103); test: Binding experiment for h-NK1 receptors ([3H]-Substance P displacement); conditions: read-out: h-NK1 pIC50 (converted)
T1 construct: expressed in transfected cells; host or cells: CHO cells
Method: The compounds according to the invention were investigated for interaction with various neurotransmitter receptors, ion channels and transporter binding sites using the radioligand binding technique. Membranes from tissue homogenates or from cells, expressing the receptor or transporter of interests, were incubated with a radioactively labelled substance ([^3H]- or [^125I] ligand) to label a particular receptor. […] Following incubation, labelled membranes were harvested and rinsed with excessive cold buffer to remove non-bound radioactivity by rapid filtration under suction. Membrane bound radioactivity was counted in a scintillation counter and results were expressed in counts per minute (cpm).
The compounds were dissolved in DMSO and tested at 10 concentrations ranging from 10^−10 to 10^−5 M.
The ability of the compounds according to the invention to displace [^3H]-Substance P from cloned human h-NK1 receptors expressed in CHO cells, to displace [^3H]-SR-48968 from cloned human h-NK2 receptors expressed in Sf9 cells, and to displace [^3H]-SR-142801 from cloned human h-NK3 receptors expressed in CHO cells was evaluated.

[3] = ferrets, loperamide 0.31 mg/kg s.c., 1 h after subcutaneous administration, blockade = 0 retches
[4] = ferrets, loperamide 0.31 mg/kg s.c., 2 h after oral administration, blockade = 0 retches
[5] = read-out: ED50 (95% confidence limits) for blockade of loperamide-induced retching, p.o. route (−2 h), ferrets, loperamide 0.31 mg/kg s.c., 2 h after oral administration, blockade = 0 retches
[6] = sc, read-out: ED50 for blockade of loperamide-induced retching, ferrets, loperamide 0.31 mg/kg s.c., 1 h after subcutaneous administration, blockade = 0 retches

T1 sequence (P25103 whole entry): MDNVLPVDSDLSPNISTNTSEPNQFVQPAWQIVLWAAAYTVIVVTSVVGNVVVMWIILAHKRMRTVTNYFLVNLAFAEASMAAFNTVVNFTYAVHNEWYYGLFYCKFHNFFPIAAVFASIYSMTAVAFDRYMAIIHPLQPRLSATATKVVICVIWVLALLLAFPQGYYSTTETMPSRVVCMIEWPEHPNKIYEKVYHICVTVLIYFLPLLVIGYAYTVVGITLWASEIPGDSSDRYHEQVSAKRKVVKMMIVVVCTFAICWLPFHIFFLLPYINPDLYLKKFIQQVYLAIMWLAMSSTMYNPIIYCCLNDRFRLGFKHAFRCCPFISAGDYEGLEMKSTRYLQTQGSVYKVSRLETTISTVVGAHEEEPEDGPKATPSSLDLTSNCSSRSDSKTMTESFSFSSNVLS

In the case of `C[C@@H](O[C@H]1OCCN(Cc2n[nH]c(=O)[nH]2)[C@H]1c1ccc(F)cc1)c1cc(C(F)(F)F)cc(C(F)(F)F)c1` [Aprepitant/MK-869, Aprepitant, reference compound], the “ED50 for blockade of loperamide-induced retching, s.c. route (−1 h)” value [1, 3] is reported as greater than 1.25 mg/kg, the “ED50 (95% confidence limits) for blockade of loperamide-induced retching, p.o. route (−2 h)” value [1, 4] is reported as 3.1 (1.9-5.0) mg/kg and the “Ratio p.o./s.c. of ED50 for blockade of retching” value (shortened to “Ratio p.o./s.c. of ED50”) ([1]; ferrets) is reported as less than 2.5.
Compound `COc1ccccc1CN[C@H]1C2CCN(CC2)[C@H]1C(c1ccccc1)c1ccccc1` [CP-96345, reference compound] has an ED50 ([1]; sc, 1 h, read-out: ED50 for blockade of loperamide-induced retching, s.c. route (−1 h)) greater than 10 mg/kg.
With `COc1ccccc1CN[C@H]1CCCN[C@H]1c1ccccc1` [CP-99994, reference compound] the “Ratio p.o./s.c. of ED50” value ([1]; ferrets) was greater than 16, the ED50 [1, 5] was greater than 10 mg/kg and the ED50 [1, 6] was 0.63 mg/kg.
In the case of `O=C(C(c1ccccc1)N1CCC(N2CCN(C3CCN(C(=O)c4cc(C(F)(F)F)cc(C(F)(F)F)c4)C(Cc4ccccc4)C3)CC2)CC1)N1CCOCC1` (centres unmarked) [Compound 6], the IC50 [2] is reported as 1 nM.
Work on `Cc1ccc(O)c(CN2CCC(N3CCN(C4CCN(C(=O)c5cc(C(F)(F)F)cc(C(F)(F)F)c5)C(Cc5ccccc5)C4)CC3)CC2)n1` (centres unmarked) [Compound 8] yielded an IC50 [2] of 0.631 nM.
In the case of `O=C(c1cccc(N2CCCC2)c1)N1CCC(N2CCN([C@H]3CCN(C(=O)c4cc(C(F)(F)F)cc(C(F)(F)F)c4)[C@H](Cc4ccccc4)C3)CC2)CC1` [Compound 42], the IC50 [2] is reported as 2.51 nM.
For `O=C(c1cccc(C(=O)N2CCC(N3CCN([C@H]4CCN(C(=O)c5cc(C(F)(F)F)cc(C(F)(F)F)c5)[C@H](Cc5ccccc5)C4)CC3)CC2)c1)N1CCCC1` [Compound 45], the IC50 [2] was 0.316 nM.
`O=C(c1cncc(N2CCCC2)c1)N1CCC(N2CCN(C3CCN(C(=O)c4cc(C(F)(F)F)cc(C(F)(F)F)c4)C(Cc4ccccc4)C3)CC2)CC1` (centres unmarked) [Compound 85] showed an IC50 [2] of 3.16 nM.
`O=C(C1CCC1)N1CCC(N2CCN([C@H]3CCN(C(=O)c4cc(C(F)(F)F)cc(C(F)(F)F)c4)[C@H](Cc4ccccc4)C3)CC2)CC1` [Compound 102] gave an IC50 [2] of 1 nM.
Compound `O=C(c1cc(C(F)(F)F)cc(C(F)(F)F)c1)N1CC[C@H](N2CCN(C3CCN(C(=O)C4(c5ccccc5)CC4)CC3)CC2)C[C@H]1Cc1ccccc1` [Compound 108] has an IC50 [2] of 1.58 nM.
Compound `O=C(/C=C/c1cccnc1)N1CCC(N2CCN([C@H]3CCN(C(=O)c4cc(C(F)(F)F)cc(C(F)(F)F)c4)[C@H](Cc4ccccc4)C3)CC2)CC1` [Compound 110] has an IC50 [2] of 0.1 nM.
`C[C@@H](O[C@H]1OCCN(Cc2n[nH]nc2CN(C)C)[C@H]1c1ccc(F)cc1)c1cc(C(F)(F)F)cc(C(F)(F)F)c1` [Compound L-760735, reference compound] was tested, and the “ED50 for blockade of loperamide-induced retching, s.c. route (−1 h)” value [1, 3] was 0.31 mg/kg.
With `COc1ccc(-n2cnnn2)cc1CN[C@H]1CCCN[C@H]1c1ccccc1` [GR-203040, (2S,3S)-(2-methoxy-5-tetrazol-1-ylbenzyl)(2-phenylpiperidin-3-yl)amine, reference compound] the “Ratio p.o./s.c. of ED50” value ([1]; ferrets) was 3.1, the ED50 [1, 5] was 0.2 mg/kg and the ED50 [1, 6] was 0.064 mg/kg.
For `CN(Cc1ccccc1)C(=O)C(Cc1ccc2ccccc2c1)NC(=O)[C@@H]1CCCN1C(=O)Nc1ccccc1[N+](=O)[O-]` (stereo partly drawn) [SDZ-NKT-343, 2-Nitrophenylcarbamoyl-(S)-prolyl-3-(2-naphthyl)alanyl-N-benzyl-N-methylamide, reference compound], the “ED50 (95% confidence limits) for blockade of loperamide-induced retching, p.o. route (−2 h)” value [1, 4] was greater than 2.5 mg/kg.
